“Also recorded” adds a separate entry of the source.
Tests used:
[1] = test system: CT26 murine colon carcinoma cells; test: MTT viability of CT26 cells without T cells; format: cell-based, mouse
Procedure: Evaluation of the Effect of PD-L1ip3 Peptide or Gene Transduction by Ad-PD-L1ip3 on Murine Colon Carcinoma Cells in Cell Culture The CT26 murine colon carcinoma cells (1,000 cells/well) were seeded into 96-well plate.
After 24 h, these cells were treated directly with PD-L1ip3 in peptide form (0.1-10 μg/ml) or indirectly with the PD-L1ip3 gene by Ad-PD-L1ip3 transduction (10, 20 and 50 MOI). The growth of the cells was evaluated by MTT assay 24-72 h after the treatments as described previously.
To evaluate therapeutic potential and cytotoxicity of the PD-L1ip3 peptide and transduction by Ad-PD-L1ip3, cell viability of CT26 cells was analyzed using MTT assay in the presence of mIFNγ (25 ng/ml), which was used to increase PD-L1 expression in cancer cells. The scrambled sequence version of PD-L1ip3 (PD-L1ip3SC) and the adenovirus carrying the corresponding scrambled sequence gene (Ad-PD-L1ip3SC) were used as negative controls.

[2] = test system: murine LLC lung carcinoma cells; test: Cytotoxicity of antigen-primed CD8+ T cells toward LLC cells in co-culture; format: cell-based, mouse; details: 10 μM, 1:16 ratio, 18 and 36 hrs; positive control anti-PD-L1 antibody
Procedure: Generation of LLC cell antigen primed CD8^+ T cells in vivo: Mice were subcutaneously injected with LLC lysate (0.5×10^6 cells/mouse in 100 μl) at Day 0. X-ray (100 Gy) irradiated LLC cells were cocultured with JAWSII immature dendritic cells (JAWS-irrLLC) at a 1:1 ratio for 48 hrs in the presence of LPS (1 μg/ml). The cells were then intravenously injected into mice via tail vein (0.5×10^4 cells/mouse in 200 μl) at Day 7. At Day 21, the splenocytes were harvested and CD8^+ T cells (AP-CD8^+ T cells) were isolated using commercially available isolation kit.
Evaluation of T cell-induced death of lung carcinoma cells in co-culture: Permanently GFP-expressing LLC cells (1×10^4 cells) were treated with murine IFNγ (25 ng/ml) for 48 hrs. The cells were treated with 10 μM PD-L1ip3. PD-L1ip3SC (10 μM) and mouse anti-PD-L1 antibody (αPD-L1: 0.5 or 1.0 μg/ml) were used as control. The cells were then cocultured with antigen primed CD8^+ T cells 1:16 ratio. The cytotoxicity of AP-CD8^+ T cells toward LLC cells at 18 and 36 hrs after coculture was determined by flow cytometry.

CT26 cell tumors = test: CT26 subcutaneous allograft tumor growth in Balb/c mice; format: in vivo, mouse
Procedure: The anti-tumor effect of Ad-PD-L1ip3 and PD-L1ip3 in peptide form was evaluated in Balb/c mice using a CT26 murine colon carcinoma allograft model. The CT26 cells were transduced with 100 MOI of Ad-PD-L1ip3 or Ad-PD-L1ip3SC. At 24 h after transduction, the cells were suspended into 0.6% agarose dissolved in RPMI 1640. After filling agarose-cell mixture into 1 ml syringe equipped with 27G needle, it was solidified on ice. Mice were anesthetized with isoflurane and injected subcutaneously into the back with a 5×10^5 CT26 cells in 50 μl cell-agarose mixture. The intraperitoneal administration of PD-L1ip3 peptide (10 mg/kg) was carried out at 1 week after CT26 inoculation for 13 days (every day, totaling 13 injections). The PBS control was injected intraperitoneally with the same schedule. For the pre-immunization study, CT26 lysate (1×10^6 cells/100 μl PBS) were injected subcutaneously, 3 times with 1-week interval. The CT26 lysate was made by 3 times freeze-thaw cycles using liquid nitrogen. The mouse body weights were monitored at 2-day intervals. All mice were sacrificed […] after CT26 inoculation by cervical dislocation after exposure to saturated C02. The tumor size was measured by caliper every 2 days and the volume was calculated using the formula 0.5×(short diameter)^2×(long diameter). The tumors were weighed and fixed in 10% formalin for histological analysis.

human PD-L1 = biological target: T1, human PD-L1 (Homo sapiens, UniProt Q9NZQ7); test: Bio-layer interferometry binding to biotinylated PD-L1; details: read-out: dissociation constant KD
T1 construct: biotin (biotinylated); purchased R&D Systems (Minneapolis, Minnesota)
Procedure: (§1) For each experiment, the BLItz machine was fitted with a fresh streptavidin biosensor tip (FortéBio). All tips were solvated in PBS buffer for 15-30 min before the experiments. The peptide was solvated at a concentration of approximately 1 mg/ml. The precise concentration of this stock solution (0.922 mg/ml) was obtained using the Pierce BCA Protein Assay Kit (Thermo Fisher Scientific) and multiple dilutions were made (corresponding to […]). A solution of biotinylated PD-L1 was applied to the biosensor tip during the loading phase of each experiment. PBS buffer (ix) was used for the baseline.

[3] = test system: CT26 murine colon carcinoma cells; test: T cell-induced death of CT26 cells in co-culture with antigen-primed CD8+ T cells (flow cytometry); format: cell-based, mouse; details: peptide 10 μM, CT26:T cell 1:16
Procedure: a. Generation of CT26 cell antigen-specific CD8^+ T cells in vivo: First, the mice were subcutaneously (SQ) injected with CT26 cell lysate (0.5×10^6 cells/mouse in 200 μl PBS) at Day 0. JAWSII immature dendritic cells and CT26 cells previously irradiated with an X-ray dose of 100 Gy were cocultured at a 1:1 ratio for 48 h with an additional treatment of LPS (1 μg/ml). The cells (0.5×10^6 cells/mouse in 200 μl PBS) were collected and administered IV via tail vein to the mice at Day 7. At Day 21, the splenocytes were harvested and the CT26 antigen-specific CD8^+ T cells were labeled using MojoSort™ Mouse CD8 T Cell Isolation Kit (Biolegend, San Diego, CA) and isolated using magnetic beads-based separation protocol with MACS® Column (Miltenyi Biotec, Bergisch Gladbach, Germany) according to the manufacturer's instructions.
b. Evaluation of T cell-induced death of colon carcinoma cells in co-culture: Permanently GFP-expressing CT26 cells (GFP-CT26) produced by GFP-lentivirus vector transduction were seeded into 12 well-plate (1×10^4 cells/well) in the presence of murine interferon gamma (mIFNγ) at 25 ng/ml for 24 h. […] The effect of PD-L1ip3 in peptide form or gene transduction by Ad-PD-L1ip3 on CT26 cell death was analyzed by flow cytometry using LIVE/DEAD™ Fixable Violet Dead Cell Stain Kit (Invitrogen Corp). […]

[4] = test system: H1299 human non-small cell lung carcinoma cell line; test: Co-culture of activated Jurkat cells with H1299 lung cancer cells, cell death by flow cytometry; format: cell-based; details: for cell death in H1299 cells: Jurkat co-culture, 48 hours; for increase in cell death in H1299 cells: co-cultured with nonspecifically activated Jurkat cells, preliminary data
Procedure: (§2) • H1299 human non-small cell lung carcinoma cell line (ATCC) • Jurkat cells (Human T lymphoblasts, ATCC) • Primary cultured murine CD8^+ T cell primed with H1299 cell lysate (H1299 cell antigens)
Co-culture assay procedure. Dead cell populations were measured by flow cytometry at 48 hours post-co-culture using propidium iodide (PI) staining.

[5] = test system: H1299 human non-small cell lung carcinoma cell line; test: Co-culture of H1299 cell antigen-specific T cells with H1299 lung cancer cells, cell death by flow cytometry; format: cell-based; details: for cell death in H1299 cells: antigen-specific T cell co-culture, 48 hours
From the text: as §2
Mice were immunized with H1299 cells via tail vein injection. T cells were extracted from spleen, purified, and expanded by co-culturing with dendritic cells (DCs) stimulated with H1299 cell lysate. Expanded T cells were used in co-culture assay.

[6] = biological target: T2, Biotinylated human PD-L1 (R&D Systems) (human, UniProt Q9NZQ7 19-239, limits assumed, biotinylated (site not stated)); test: bio-layer interferometry (BLItz), biotinylated PD-L1 on streptavidin tip, peptide in solution; negative control; scrambled peptide, negative control
T2 construct: Bought reagent, loaded on a streptavidin biosensor tip for bio-layer interferometry
Procedure: as §1
The peptide was synthesized commercially and the dissociation constant was determined by bio-layer interferometry.

[7] = peptide form 0.1-10 μg/ml, mIFNγ 25 ng/ml, 24-72 h, no T cells

T2 sequence (Q9NZQ7 19-239 limits assumed): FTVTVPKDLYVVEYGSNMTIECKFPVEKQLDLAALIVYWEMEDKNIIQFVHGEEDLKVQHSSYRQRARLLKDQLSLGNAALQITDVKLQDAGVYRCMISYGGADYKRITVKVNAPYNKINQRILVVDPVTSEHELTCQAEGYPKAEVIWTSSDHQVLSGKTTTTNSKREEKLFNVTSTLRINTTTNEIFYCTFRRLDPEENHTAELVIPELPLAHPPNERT

Row | Molecule | viability of CT26 cells (MTT) [1, 7] | cytotoxicity of antigen-specific CD8+ T cells toward LLC cells [2] | average tumor volume (CT26 cell tumors; mice pre-treated with CT26 cell lysate 3 times, Ad 100 MOI, peptide 10 mg/kg/day i.p., untreated 729.6±310.3) [mm^3] | change in tumor growth vs untreated CT26 cells (CT26 cell tumors; no lysate pretreatment) | Kd (human PD-L1) [mM] | T cell-induced cell death of CT26 cells vs PBS [3] | cell death in H1299 cells [4] | increase in cell death in H1299 cells [4] [%] | cell death in H1299 cells [5] | increase in cell death in H1299 cells ([5]; co-cultured with H1299 cell antigen-primed T lymphocytes) [%] | viability of CT26 cells (MTT) ([1]; 10 μg/ml, 72 h, not significantly different from PBS) | Kd [6] [mM]
1 | H-GTRLKPLIICVQWPGL-OH [PD-L1ip3] | not affected | Increased; also recorded: as good as or better than the positive control | 607.5±220.1 | nor PD-L1ip3 in peptide form alone showed a statistically significant change in tumor growth | 0.033 ± 0.003 | markedly increased | only minor increases of cell death | 30 | clear increases of cell death | 50 | – | –
2 | H-VLIKIPWLRLPGCGTQ-OH [PD-L1ip3SC, reference compound] | not affected | – | – | – | – | – | only minor increases of cell death | 30 | – | – | slight decrease of cell viability | –
3 | PLDIRDRVHVEKSAAS [PD-L1ip4] | – | – | – | – | – | – | did not alter T cell-dependent death | – | did not alter T cell-dependent death | – | – | –
4 | VLIKIPWLRLPGCGTQ (Negative control in BLI; also called scrambled peptide) [PD-L1ip3SC (scrambled analogue of PD-L1ip3)] | – | – | – | – | – | – | – | – | – | – | – | ~50

Source: patent publication US20250066420A1, “PD-L1 INHIBITORY PEPTIDE FOR CANCER IMMUNOTHERAPY” (Kansas State University Research Foundation, priority 2021, published 2025)
